Data as given in patent publication US5512687A, “Compounds for inhibiting immune response” (Procept, Inc., priority 1994, dated 1996).
Read-outs that look alike come from different tables or passages of the source.

How the values were obtained:
[1] = tested on: human peripheral blood lymphocyte (PBL) proliferation; format: cell-based
[2] = tested on: Jurkat cell line; assay: in vitro toxicity study, cytotoxicity (Jurkat cell); format: cell-based

| Compound | IC50 [1] [µg/mL] | Cytotoxicity (Jurkat cell) IC50 [2] [µg/mL] | Cytotoxicity (Jurkat cell) IC50 ([2]; values are extrapolated) [µg/mL] |
| --- | --- | --- | --- |
| Cn1cc[n+]([Ru-3]([n+]2ccn(C)c2)([n+]2ccn(C)c2)([n+]2ccn(C)c2)([n+]2ccn(C)c2)[n+]2ccn(C)c2)c1.F[P-](F)(F)(F)(F)F.F[P-](F)(F)(F)(F)F.F[P-](F)(F)(F)(F)F [Ru(1-MeIm)6 !(PF6)3] | 0.19 ± 0.16 | 115 | – |
| Cn1cc[n+]([Ru-4]([n+]2ccn(C)c2)([n+]2ccn(C)c2)([n+]2ccn(C)c2)([n+]2ccn(C)c2)[n+]2ccn(C)c2)c1.[Cl-].[Cl-] [Ru(1-MeIm)6 !Cl2] | 0.052 ± 0.03 | 2000 | – |
| Cn1cc[n+]([Ru-3]([n+]2ccn(C)c2)([n+]2ccn(C)c2)([n+]2ccn(C)c2)([n+]2ccn(C)c2)[n+]2ccn(C)c2)c1.[Cl-].[Cl-].[Cl-] [Ru(1-MeIm)6 !Cl3] | 0.12 ± 0.1 | > 300 | – |
| [Cl-].[Cl-].c1c[n+]([Ru-4]([n+]2cc[nH]c2)([n+]2cc[nH]c2)([n+]2cc[nH]c2)([n+]2cc[nH]c2)[n+]2cc[nH]c2)c[nH]1 [Ru(Im)6 !Cl2] | 0.0067 ± 0.003 | 200 | – |
| [Cl-].[Cl-].[Cl-].c1c[n+]([Ru-3]([n+]2cc[nH]c2)([n+]2cc[nH]c2)([n+]2cc[nH]c2)([n+]2cc[nH]c2)[n+]2cc[nH]c2)c[nH]1 [Ru(Im)6 !Cl3] | 0.005 ± 0.004 | – | 530 |
| Ru(4-MeIm)6 !Cl2 | 0.09 ± 0.07 | – | 1040 |
